In patent publication US10888544B2, “Methods for treating Gaucher disease” (Genzyme Corporation, priority 2017, dated 2021):
“And” between values parts separate entries of the source, which are not always exact repeats. Equal entries are not always repeated. Where two headings read alike, the source gives them in different places.

Test: Phase 1 single dose pharmacokinetic study of eliglustat tartrate in severe renal impairment and matched normal renal function subjects (Example 3)
Format: in vivo, human
Conditions: for AUC / Cmax / AUC(0-inf) / AUC(0-t) / Vd/F / Tmax: human, 100 mg; for AUC: read-out: AUC, geometric mean
Method: A phase 1, open-label, 2-stage, pharmacokinetic and tolerability study of single dose eliglustat tartrate in subjects with renal impairment (RI) (mild, moderate, and severe) and subjects with normal renal function, matched to RI subjects by age, weight, and cytochrome P450 [CYP] 2D6 phenotype was carried out to study the effect of mild, moderate, and severe RI on the pharmacokinetics (PK) of eliglustat.
Methodology: A phase 1, open-label, 2-stage, pharmacokinetic and tolerability study of single dose eliglustat tartrate in subjects with renal impairment (RI) (mild, moderate, and severe) and subjects with normal renal function, matched to RI subjects by age, weight, and cytochrome P450 [CYP] 2D6 phenotype.
Approximately 32 subjects were planned to be enrolled in 2 stages: Stage 1 comprised of 8 subjects with severe RI and 8 subjects with normal renal function, matched by CYP2D6 phenotype, weight, and age. […] Stage 2 was to include 8 subjects with mild and 8 subjects with moderate RI. Each cohort was to enroll at least 6 CYP2D6 extensive metabolizers (EMs). The remaining 2 subjects were to be poor metabolizers (PMs), intermediate metabolizers (IMs) or EMs, enrolled according to the following preference: at least 20 subjects were to be screened for each cohort and if identified, up to 2 PMs were to be enrolled. If less than 2 PMs were identified, up to 2 IMs were to be enrolled for a total of 8 subjects. If less than 2 PMs and IMs were identified, up to 2 additional EMs were to be enrolled for a total of 8 subjects. Allowed concomitant medications included no more than one weak CYP3A inhibitor and one weak CYP2D6 inhibitor, alone or in combination.
CYP2D6 EMs and IMs were to receive a single 100 mg dose of eliglustat tartrate while CYP2D6 PMs were to receive a single 50 mg dose of eliglustat tartrate.
Normal renal function subjects: Male or female subjects, between 18 and 79 years, inclusive, body weight within 15% of the body weight of matched subject with RI, BMI between 18.0 and 37.0 kg/m^2 and a CrCl of >80 mL/min. Healthy subjects were also matched by age and CYP2D6 predicted phenotype based on genotype.
A single 100 mg capsule of eliglustat tartrate (equivalent to 84 mg of eliglustat) was to be administered to CYP2D6 EM or IM subjects with RI and matching healthy subjects.
Pharmacokinetics: Plasma eliglustat concentrations were used to determine the following PK parameters using noncompartmental methods: Maximum plasma concentration observed (Cmax), first time to reach Cmax (tmax), area under the plasma concentration versus time curve calculated using the trapezoidal method from time zero to the time corresponding to the last concentration above the limit of quantification, tlast (AUClast), area under the plasma concentration time curve extrapolated to infinity (AUC), terminal half-life associated with the terminal slope Xz (t1/2z), apparent total body clearance of a drug from plasma (CL/F), and apparent volume of distribution during the terminal phase (VZ/F).
Blood samples were collected at the following time points to assess plasma concentrations of eliglustat: predose, and 0.5, 1, 1.5, 2, 2.5, 3, 4, 6, 8, 10, 12, 24, and 36 hours postdose.
Eliglustat concentrations in plasma were determined using a validated liquid chromatography tandem mass spectrometry method with a lower limit of quantification (LLOQ) of 0.2 ng/mL.
Eliglustat PK parameters were summarized using descriptive statistics for each population group and for each CYP2D6 phenotype. For log-transformed Cmax, AUClast, AUC, t1/2z, CL/F, and Vz/F, the effect of severe RI on eliglustat PK parameters after a single dose of eliglustat tartrate was analyzed using a linear fixed effects model on CYP2D6 EM subjects. Inclusion of population, CYP3A weak inhibitor, age, and weight as covariate was selected manually, choosing the model with the lowest AlC value. After testing, the final model chosen were those with only population as fixed term. […]

[1] = CYP2D6 EM, healthy, N=7, single oral 100 mg eliglustat tartrate, plasma
[2] = CYP2D6 EM, severe RI, N=7, single oral 100 mg eliglustat tartrate, plasma
[3] = CYP2D6 IM, healthy, N=1, single oral 100 mg eliglustat tartrate, plasma
[4] = IM severe RI subject taking escitalopram and amlodipine
[5] = Severe RI vs Healthy, CYP2D6 EM subjects (7 severe RI and 7 healthy)

**Q.** Which “CL/F, geometric mean” value [1] does the source give for `CCCCCCCC(=O)N[C@H](CN1CCCC1)[C@H](O)c1ccc2c(c1)OCCO2` [eliglustat, N-((1R,2R)-1-(2,3-dihydrobenzo[b][1,4]dioxin-6-yl)-1-hydroxy-3-(pyrrolidin-1-yl)propan-2-yl)octanamide] here?
**A.** (834) [55.2] L/h

**Q.** What about the “CL/F, mean ± SD” value [1] of the same compound?
**A.** 963 ± 532 L/h

**Q.** What about the “t1/2z, geometric mean” value [1] of the same compound?
**A.** (8.39) [17.8] h

**Q.** And the “t1/2z, mean ± SD” value [1]?
**A.** 8.50 h and 8.50 ± 1.51 h

**Q.** What about the “tlast, median” value [1] of the same compound?
**A.** 36.00 h

**Q.** What about the “CL/F, geometric mean” value [2] of the same compound?
**A.** (845) [39.2] L/h

**Q.** And the “CL/F, mean ± SD” value [2]?
**A.** 903 ± 354 L/h

**Q.** What about the “t1/2z, geometric mean” value [2] of the same compound?
**A.** (6.51) [13.3] h

**Q.** And the “t1/2z, mean ± SD” value [2]?
**A.** 6.56 h and 6.56 ± 0.876 h

**Q.** What about the “tlast, median” value [2] of the same compound?
**A.** 36.00 h

**Q.** And the CL/F [3]?
**A.** 151 L/h

**Q.** What about the t1/2z [3] of the same compound?
**A.** 9.59 h

**Q.** What about the tlast [3] of the same compound?
**A.** 36.00 h

**Q.** What about the tlast (CYP2D6 IM, severe RI, N=1, taking escitalopram and amlodipine, single oral 100 mg eliglustat tartrate, plasma) of the same compound?
**A.** 36.00 h

**Q.** And the “AUClast ratio, CYP2D6 IM with severe RI vs CYP2D6 EM with severe RI” value [4]?
**A.** 35.2 fold

**Q.** What about the “AUClast ratio, CYP2D6 IM with severe RI vs CYP2D6 IM healthy subject” value [4] of the same compound?
**A.** 6.90 fold

**Q.** And the “AUClast ratio, CYP2D6 IM with severe RI vs healthy CYP2D6 EMs” value [4]?
**A.** 32.1 fold

**Q.** And the “AUClast geometric mean ratio, point estimate” value [5]?
**A.** 0.994

**Q.** And the “CL/F geometric mean ratio, point estimate” value [5]?
**A.** 1.014

**Q.** And the “Vz/F geometric mean ratio, point estimate” value [5]?
**A.** 0.787

**Q.** What about the “t1/2z geometric mean ratio, point estimate” value [5] of the same compound?
**A.** 0.776

**Q.** And the AUC (both sexes, plasma, oral, CYP2D6 EM, severe RI, coadministered weak CYP3A inhibitor amlodipine, N=5)?
**A.** 98.3 ng·h/mL

**Q.** And the Cmax (both sexes, plasma, oral, CYP2D6 EM, severe RI, coadministered weak CYP3A inhibitor amlodipine, N=5, read-out: Cmax, geometric mean)?
**A.** 10.6 ng/mL

**Q.** What about the AUC (both sexes, plasma, oral, CYP2D6 EM, severe RI, eliglustat tartrate alone, N=2) of the same compound?
**A.** 104 ng·h/mL

**Q.** And the Cmax (both sexes, plasma, oral, CYP2D6 EM, severe RI, eliglustat tartrate alone, N=2, read-out: Cmax, geometric mean)?
**A.** 15.2 ng/mL

**Q.** And the AUC(0-inf) (both sexes, plasma, po, CYP2D6 EM, healthy, N=7, single oral 100 mg eliglustat tartrate, plasma, read-out: AUC (extrapolated to infinity), geometric mean)?
**A.** 101 ng·h/mL

**Q.** What about the AUC(0-inf) (both sexes, plasma, po, CYP2D6 EM, healthy, N=7, single oral 100 mg eliglustat tartrate, plasma, read-out: AUC (extrapolated to infinity), mean ± SD) of the same compound?
**A.** 118 ± 71.1 ng·h/mL

**Q.** And the AUC(0-t) (both sexes, plasma, po, CYP2D6 EM, healthy, N=7, single oral 100 mg eliglustat tartrate, plasma, read-out: AUClast, geometric mean)?
**A.** 96 ng·h/mL

**Q.** And the AUC(0-t) (both sexes, plasma, po, CYP2D6 EM, healthy, N=7, single oral 100 mg eliglustat tartrate, plasma, read-out: AUClast, mean ± SD)?
**A.** 112 ± 68.7 ng·h/mL

**Q.** And the Cmax (both sexes, plasma, po, CYP2D6 EM, healthy, N=7, single oral 100 mg eliglustat tartrate, plasma, read-out: Cmax, geometric mean)?
**A.** 13.4 ng/mL

**Q.** And the Cmax (both sexes, plasma, po, CYP2D6 EM, healthy, N=7, single oral 100 mg eliglustat tartrate, plasma, read-out: Cmax, mean ± SD)?
**A.** 17.6 ± 13.2 ng/mL

**Q.** What about the Vd/F (both sexes, plasma, po, CYP2D6 EM, healthy, N=7, single oral 100 mg eliglustat tartrate, plasma, read-out: Vz/F, geometric mean) of the same compound?
**A.** 10100 L

**Q.** And the Vd/F (both sexes, plasma, po, CYP2D6 EM, healthy, N=7, single oral 100 mg eliglustat tartrate, plasma, read-out: Vz/F, mean ± SD)?
**A.** 11700 ± 6710 L

**Q.** What about the Tmax (both sexes, plasma, po, CYP2D6 EM, healthy, N=7, single oral 100 mg eliglustat tartrate, plasma, read-out: tmax, median) of the same compound?
**A.** 1.5 h

**Q.** What about the Cmax (both sexes, plasma, po, CYP2D6 EM, severe RI, N=7 (5 taking amlodipine), single oral 100 mg eliglustat tartrate, plasma, read-out: Cmax, mean ± SD) of the same compound?
**A.** 12.7 ± 4.85 ng/mL

**Q.** And the AUC(0-inf) (both sexes, plasma, po, CYP2D6 EM, severe RI, N=7, single oral 100 mg eliglustat tartrate, plasma, read-out: AUC (extrapolated to infinity), geometric mean)?
**A.** 99.8 ng·h/mL

**Q.** What about the AUC(0-inf) (both sexes, plasma, po, CYP2D6 EM, severe RI, N=7, single oral 100 mg eliglustat tartrate, plasma, read-out: AUC (extrapolated to infinity), mean ± SD) of the same compound?
**A.** 107 ± 42.1 ng·h/mL

**Q.** And the AUC(0-t) (both sexes, plasma, po, CYP2D6 EM, severe RI, N=7, single oral 100 mg eliglustat tartrate, plasma, read-out: AUClast, geometric mean)?
**A.** 95.5 ng·h/mL

**Q.** What about the AUC(0-t) (both sexes, plasma, po, CYP2D6 EM, severe RI, N=7, single oral 100 mg eliglustat tartrate, plasma, read-out: AUClast, mean ± SD) of the same compound?
**A.** 102 ± 41.7 ng·h/mL

**Q.** And the Cmax (both sexes, plasma, po, CYP2D6 EM, severe RI, N=7, single oral 100 mg eliglustat tartrate, plasma, read-out: Cmax, geometric mean)?
**A.** 11.8 ng/mL

**Q.** And the Vd/F (both sexes, plasma, po, CYP2D6 EM, severe RI, N=7, single oral 100 mg eliglustat tartrate, plasma, read-out: Vz/F, geometric mean)?
**A.** 7940 L

**Q.** And the Vd/F (both sexes, plasma, po, CYP2D6 EM, severe RI, N=7, single oral 100 mg eliglustat tartrate, plasma, read-out: Vz/F, mean ± SD)?
**A.** 8480 ± 3190 L

**Q.** And the Tmax (both sexes, plasma, po, CYP2D6 EM, severe RI, N=7, single oral 100 mg eliglustat tartrate, plasma, read-out: tmax, median)?
**A.** 4 h

**Q.** And the AUC(0-inf) (plasma, oral, CYP2D6 IM, healthy, N=1, single oral 100 mg eliglustat tartrate, plasma, read-out: AUC (extrapolated to infinity))?
**A.** 559 ng·h/mL

**Q.** And the AUC(0-t) (plasma, oral, CYP2D6 IM, healthy, N=1, single oral 100 mg eliglustat tartrate, plasma, read-out: AUClast)?
**A.** 520 ng·h/mL

**Q.** What about the Cmax (plasma, oral, CYP2D6 IM, healthy, N=1, single oral 100 mg eliglustat tartrate, plasma, read-out: Cmax) of the same compound?
**A.** 54.7 ng/mL

**Q.** And the Vd/F (plasma, oral, CYP2D6 IM, healthy, N=1, single oral 100 mg eliglustat tartrate, plasma, read-out: Vz/F)?
**A.** 2090 L

**Q.** What about the Tmax (plasma, oral, CYP2D6 IM, healthy, N=1, single oral 100 mg eliglustat tartrate, plasma, read-out: tmax) of the same compound?
**A.** 3 h

**Q.** What about the AUC(0-t) (plasma, oral, CYP2D6 IM, severe RI, N=1, taking escitalopram and amlodipine, single oral 100 mg eliglustat tartrate, plasma, read-out: AUClast) of the same compound?
**A.** 3590 ng·h/mL

**Q.** And the Cmax (plasma, oral, CYP2D6 IM, severe RI, N=1, taking escitalopram and amlodipine, single oral 100 mg eliglustat tartrate, plasma, read-out: Cmax)?
**A.** 220 ng/mL

**Q.** And the Tmax (plasma, oral, CYP2D6 IM, severe RI, N=1, taking escitalopram and amlodipine, single oral 100 mg eliglustat tartrate, plasma, read-out: tmax)?
**A.** 4 h
